Literature values as cited in patent US8501405B2, “Real-time sequencing methods and systems” (Pacific Biosciences of California, Inc., priority 2009, dated 2013).
Where two headings read alike, the source gives them in different places.

B1: phi6: RNA-dependent RNA polymerase (protein, UniProt P11124 2-665, looked up)
RNA-directed RNA polymerase: PRRAPAFPLSDIKAQMLFANNIKAQQASKRSFKEGAIETYEGLLSVDPRFLSFKNELSRYLTDHFPANVDEYGRVYGNGVRTNFFGMRHMNGFPMIPATWPLASNLKKRADADLADGPVSERDNLLFRAAVRLMFSDLEPVPLKIRKGSSTCIPYFSNDMGTKIEIAERALEKAEEAGNLMLQGKFDDAYQLHQMGGAYYVVYRAQSTDAITLDPKTGKFVSKDRMVADFEYAVTGGEQGSLFAASKDASRLKEQYGIDVPDGFFCERRRTAMGGPFALNAPIMAVAQPVRNKIYSKYAYTFHHTTRLNKEEKVKEWSLCVATDVSDHDTFWPGWLRDLICDELLNMGYAPWWVKLFETSLKLPVYVGAPAPEQGHTLLGDPSNPDLEVGLSSGQGATDLMGTLLMSITYLVMQLDHTAPHLNSRIKDMPSACRFLDSYWQGHEEIRQISKSDDAILGWTKGRALVGGHRLFEMLKEGKVNPSPYMKISYEHGGAFLGDILLYDSRREPGSAIFVGNINSMLNNQFSPEYGVQSGVRDRSKRKRPFPGLAWASMKDTYGACPIYSDVLEAIERCWWNAFGESYRAYREDMLKRDTLELSRYVASMARQAGLAELTPIDLEVLADPNKLQYKWTEADVSANIHEVLMHGVSVEKTERFLRSVMPR
B2: Thermus thermophilus: DNA polymerase with reverse transcriptase activity (protein, UniProt P52028 1-834, looked up)
DNA polymerase I, thermostable: MEAMLPLFEPKGRVLLVDGHHLAYRTFFALKGLTTSRGEPVQAVYGFAKSLLKALKEDGYKAVFVVFDAKAPSFRHEAYEAYKAGRAPTPEDFPRQLALIKELVDLLGFTRLEVPGYEADDVLATLAKKAEKEGYEVRILTADRDLYQLVSDRVAVLHPEGHLITPEWLWEKYGLRPEQWVDFRALVGDPSDNLPGVKGIGEKTALKLLKEWGSLENLLKNLDRVKPENVREKIKAHLEDLRLSLELSRVRTDLPLEVDLAQGREPDREGLRAFLERLEFGSLLHEFGLLEAPAPLEEAPWPPPEGAFVGFVLSRPEPMWAELKALAACRDGRVHRAADPLAGLKDLKEVRGLLAKDLAVLASREGLDLVPGDDPMLLAYLLDPSNTTPEGVARRYGGEWTEDAAHRALLSERLHRNLLKRLEGEEKLLWLYHEVEKPLSRVLAHMEATGVRLDVAYLQALSLELAEEIRRLEEEVFRLAGHPFNLNSRDQLERVLFDELRLPALGKTQKTGKRSTSAAVLEALREAHPIVEKILQHRELTKLKNTYVDPLPSLVHPRTGRLHTRFNQTATATGRLSSSDPNLQNIPVRTPLGQRIRRAFVAEAGWALVALDYSQIELRVLAHLSGDENLIRVFQEGKDIHTQTASWMFGVPPEAVDPLMRRAAKTVNFGVLYGMSAHRLSQELAIPYEEAVAFIERYFQSFPKVRAWIEKTLEEGRKRGYVETLFGRRRYVPDLNARVKSVREAAERMAFNMPVQGTAADLMKLAMVKLFPRLREMGARMLLQVHDELLLEAPQARAEEVAALAKEAMEKAYPLAVPLEVEVGMGEDWLSAKG

Legend:
[1] = not given; remark: listed apart in the source
[2] = not given; remark: listed apart in the source
[3] = DNA polymerases with reverse transcriptase activity; available values for DNA-dependent DNA polymerization
[4] = DNA polymerases with reverse transcriptase activity, available values for DNA-dependent DNA polymerization
[5] = reverse transcriptases and RNA-dependent RNA polymerases, * wild-type or published mutants

Molecule | Processivity (bases) [4] | Maximum speed (bases/s) [1, 4] [bases/s] | Strand-displacement DNA synthesis [2, 4] | Activity with phospholinked nucleotides [3] | Processivity (bases) [5] | Maximum speed (bases/s) [1, 5] [bases/s] | Strand-displacement DNA synthesis ([2]; reverse transcriptases and RNA-dependent RNA polymerases)
phi29: DNA polymerase with reverse transcriptase activity | >70,000 bases | 100 | yes | yes | – | – | –
E. coli pol I: DNA polymerase with reverse transcriptase activity | ~50 bases | 17 | yes (degrades | – | – | – | –
B1 | – | – | – | – | 13,500 bases | 120 | yes
B2 | 300 bases | 120 | – | – | – | – | –
